According to patent publication US20240316022A1 (TYRA BIOSCIENCES, INC., priority 2021, published 2024):

Legend:
FGFR3 = target: T1, FGFR3 (Homo sapiens, UniProt P22607); assay: Kinase binding assay (kinase-tagged T7 phage, qPCR), Kd; details: read-out: FGFR3 (Kd nM)
T1 construct: made in house; host or cells: E. coli derived from BL21, infected with T7 phage

FGFR4 = target: T2, FGFR4 (Homo sapiens, UniProt P22455); assay: as above; details: read-out: FGFR4 (Kd nM)
T2 construct: made in house; host or cells: E. coli derived from BL21, infected with T7 phage

BCR-FGFR1 Ba/F3 = target: T3, BCR-FGFR1 Ba/F3 (Homo sapiens, UniProt P11362); assay: Ba/F3 cell viability assay (CellTiter-Glo 2.0); assay type: cell-based; details: Ba/F3 BCR-FGFR1 cells, 48 hours
T3 construct: host or cells: Ba/F3; the other entry of the earlier key: BCR (P11274, Breakpoint cluster region protein)
From the text: (§1) Experimental Purpose: Recombinant kinase fusions are transduced into parental Ba/F3, which becomes dependent upon this constitutive kinase activity for IL3-independent survival. Inhibition of kinase activity leads to cell death, which is monitored using CellTiter-Glo® 2.0 (Promega) which measures intracellular ATP concentration that in turn serves as a marker for viability. BCR-FGFR4 Ba/F3, BCR-FGFR1 Ba/F3 and FGFR3-BAIAP2L1 Ba/F3 were obtained from Advanced Cellular Dynamics (Seattle, WA)
(§2) Cell Viability Assay Procedure: Cell Titer-Glo® 2.0 Luminescent cell viability assay reagent was purchased from Promega (Madison, WI). BCR-FGFR4 Ba/F3, BCR-FGFR1 Ba/F3 and FGFR3-BAIAP2L1 Ba/F3 cells were cultured in RPMI1640 media supplemented with 10% fetal bovine serum. Cultures were maintained at 37° C. in a humidified atmosphere of 5% CO2 and 95% air.
(§3) Cells were plated in 96-well clear bottom/white plates (Corning #3903) at 10,000 cells/well in 100 μl of media, incubated overnight. The next day, test compound DMSO stock solutions were made at 10 mM and 2 μM final concentration. Compounds were then added to cells in a 9-dose, 10-fold dilution series starting at 30 μM with an HP 300e Digital Dispenser (each dose was applied in triplicate). DMSO was backfilled to each well up to 301 nL total volume of test compound+DMSO, and a total of 301 nL DMSO was added to a control/no test compound well in triplicate. The cells in cell culture plates were incubated with the compounds at 37° C. and 5% CO2 for 48 hours. Then 50 μl of Cell Titer Glo 2.0 reagent was added to each well of the cell culture plates. The contents were covered from light and mixed on an orbital shaker at room temperature for 10 min. Luminescence was recorded by a Synergy H1 Microplate Reader (Biotek, Winooski, VT). Cells were assessed as a percentage of DMSO only treated control cells. Curves were plotted and IC50 values were calculated using the GraphPad Prism 8 program based on a sigmoidal dose-response equation (4 parameter).

FGFR3-BAIAP2L1 Ba/F3 = target: T4, FGFR3-BAIAP2L1 Ba/F3 (Homo sapiens, UniProt P22607); assay: Ba/F3 cell viability assay (CellTiter-Glo 2.0); assay type: cell-based; details: Ba/F3 FGFR3-BAIAP2L1 cells, 48 hours
T4 construct: host or cells: Ba/F3; the other entry of the earlier key: BAIAP2L1 (Q9UHR4, BAR/IMD domain-containing adapter protein 2-like 1)
From the text: as §1, §2, §3

FGFR2 = target: T5, FGFR2 (Homo sapiens, UniProt P21802); assay: Kinase binding assay (kinase-tagged T7 phage, qPCR), Kd; details: read-out: FGFR2 (Kd nM)
T5 construct: made in house; host or cells: E. coli derived from BL21, infected with T7 phage

FGFR1 = target: T6, FGFR1 (Homo sapiens, UniProt P11362); assay: as above; details: read-out: FGFR1 (Kd nM)
T6 construct: made in house; host or cells: E. coli derived from BL21, infected with T7 phage
T6 sequence (P11362 22-822): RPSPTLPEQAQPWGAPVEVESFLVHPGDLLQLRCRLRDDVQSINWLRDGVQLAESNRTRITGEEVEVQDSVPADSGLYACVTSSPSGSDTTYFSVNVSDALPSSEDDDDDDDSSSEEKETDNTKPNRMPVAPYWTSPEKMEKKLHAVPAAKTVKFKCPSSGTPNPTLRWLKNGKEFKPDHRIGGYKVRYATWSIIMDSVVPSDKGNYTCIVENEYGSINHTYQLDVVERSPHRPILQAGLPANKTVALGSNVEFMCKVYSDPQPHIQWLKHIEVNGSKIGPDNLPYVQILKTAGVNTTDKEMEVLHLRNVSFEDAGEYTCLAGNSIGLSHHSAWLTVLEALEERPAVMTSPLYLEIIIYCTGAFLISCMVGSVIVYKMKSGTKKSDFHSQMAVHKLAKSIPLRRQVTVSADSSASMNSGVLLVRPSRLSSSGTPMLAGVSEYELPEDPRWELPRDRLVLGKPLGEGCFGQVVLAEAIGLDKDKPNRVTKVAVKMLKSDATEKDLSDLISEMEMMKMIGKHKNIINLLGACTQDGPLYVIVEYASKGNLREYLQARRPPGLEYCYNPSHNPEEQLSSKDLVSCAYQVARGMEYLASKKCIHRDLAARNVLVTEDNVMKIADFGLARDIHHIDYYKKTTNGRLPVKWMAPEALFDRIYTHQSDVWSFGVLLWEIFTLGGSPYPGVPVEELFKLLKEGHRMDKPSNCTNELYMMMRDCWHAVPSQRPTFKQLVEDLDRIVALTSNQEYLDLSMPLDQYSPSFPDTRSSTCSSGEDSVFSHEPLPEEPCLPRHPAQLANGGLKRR

T4 sequence (P22607 397-758 limits assumed): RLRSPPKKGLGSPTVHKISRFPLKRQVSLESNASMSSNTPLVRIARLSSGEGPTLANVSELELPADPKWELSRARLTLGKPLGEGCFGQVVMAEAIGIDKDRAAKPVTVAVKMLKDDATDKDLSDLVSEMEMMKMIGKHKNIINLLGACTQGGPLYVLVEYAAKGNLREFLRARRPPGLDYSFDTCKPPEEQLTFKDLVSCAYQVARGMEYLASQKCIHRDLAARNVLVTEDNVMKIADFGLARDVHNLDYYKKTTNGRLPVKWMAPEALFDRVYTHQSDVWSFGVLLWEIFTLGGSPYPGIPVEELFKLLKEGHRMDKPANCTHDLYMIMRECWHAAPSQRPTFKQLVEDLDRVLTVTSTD
T2 sequence (P22455 22-802): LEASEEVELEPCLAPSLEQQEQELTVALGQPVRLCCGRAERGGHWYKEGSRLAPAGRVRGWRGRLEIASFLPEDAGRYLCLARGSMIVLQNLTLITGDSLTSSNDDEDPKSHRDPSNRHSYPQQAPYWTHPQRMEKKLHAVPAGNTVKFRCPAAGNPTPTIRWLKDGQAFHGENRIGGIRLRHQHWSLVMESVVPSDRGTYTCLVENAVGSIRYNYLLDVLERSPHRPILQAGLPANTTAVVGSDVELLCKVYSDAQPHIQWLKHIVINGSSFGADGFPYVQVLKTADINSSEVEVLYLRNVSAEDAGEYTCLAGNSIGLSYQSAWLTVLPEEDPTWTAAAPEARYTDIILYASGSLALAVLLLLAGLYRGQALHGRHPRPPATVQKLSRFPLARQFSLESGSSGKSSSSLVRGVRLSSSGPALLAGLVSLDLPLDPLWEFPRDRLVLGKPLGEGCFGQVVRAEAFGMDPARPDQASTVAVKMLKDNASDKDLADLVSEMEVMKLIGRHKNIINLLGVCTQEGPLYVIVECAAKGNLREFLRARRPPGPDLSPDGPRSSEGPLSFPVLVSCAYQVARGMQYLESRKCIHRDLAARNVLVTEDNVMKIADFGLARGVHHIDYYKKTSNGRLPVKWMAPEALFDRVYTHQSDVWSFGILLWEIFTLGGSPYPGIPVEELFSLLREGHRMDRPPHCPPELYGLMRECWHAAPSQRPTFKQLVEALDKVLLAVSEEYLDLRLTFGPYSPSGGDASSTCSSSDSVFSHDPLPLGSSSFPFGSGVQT
T3 sequence (P11362 478-767 limits assumed): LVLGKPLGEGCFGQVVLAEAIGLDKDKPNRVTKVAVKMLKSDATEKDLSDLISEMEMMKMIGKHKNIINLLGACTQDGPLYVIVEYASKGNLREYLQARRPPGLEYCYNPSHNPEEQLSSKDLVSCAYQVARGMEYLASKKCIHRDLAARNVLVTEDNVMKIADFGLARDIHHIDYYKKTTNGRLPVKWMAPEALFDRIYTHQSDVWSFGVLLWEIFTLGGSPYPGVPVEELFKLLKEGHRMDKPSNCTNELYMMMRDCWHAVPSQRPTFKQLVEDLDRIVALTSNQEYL
T5 sequence (P21802 22-821): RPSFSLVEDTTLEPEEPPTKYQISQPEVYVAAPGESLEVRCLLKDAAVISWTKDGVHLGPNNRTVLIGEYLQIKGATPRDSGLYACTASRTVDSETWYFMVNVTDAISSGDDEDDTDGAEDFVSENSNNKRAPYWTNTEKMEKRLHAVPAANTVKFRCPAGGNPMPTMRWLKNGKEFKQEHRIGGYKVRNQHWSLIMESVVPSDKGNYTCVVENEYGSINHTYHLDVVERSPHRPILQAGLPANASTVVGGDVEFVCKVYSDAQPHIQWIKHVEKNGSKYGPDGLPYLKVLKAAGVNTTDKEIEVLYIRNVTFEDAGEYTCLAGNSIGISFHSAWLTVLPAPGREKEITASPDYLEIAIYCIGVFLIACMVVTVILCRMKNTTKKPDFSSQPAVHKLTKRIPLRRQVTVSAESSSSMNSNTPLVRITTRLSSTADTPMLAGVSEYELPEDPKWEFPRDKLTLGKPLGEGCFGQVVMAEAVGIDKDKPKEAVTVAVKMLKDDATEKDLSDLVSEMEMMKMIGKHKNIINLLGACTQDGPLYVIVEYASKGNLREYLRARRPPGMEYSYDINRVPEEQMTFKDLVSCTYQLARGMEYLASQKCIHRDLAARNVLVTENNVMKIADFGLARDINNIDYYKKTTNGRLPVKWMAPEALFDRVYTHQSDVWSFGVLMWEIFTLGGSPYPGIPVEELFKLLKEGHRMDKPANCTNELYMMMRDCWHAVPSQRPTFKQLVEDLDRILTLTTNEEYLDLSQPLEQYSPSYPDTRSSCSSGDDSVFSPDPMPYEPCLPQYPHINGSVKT
T1 sequence (P22607 23-806): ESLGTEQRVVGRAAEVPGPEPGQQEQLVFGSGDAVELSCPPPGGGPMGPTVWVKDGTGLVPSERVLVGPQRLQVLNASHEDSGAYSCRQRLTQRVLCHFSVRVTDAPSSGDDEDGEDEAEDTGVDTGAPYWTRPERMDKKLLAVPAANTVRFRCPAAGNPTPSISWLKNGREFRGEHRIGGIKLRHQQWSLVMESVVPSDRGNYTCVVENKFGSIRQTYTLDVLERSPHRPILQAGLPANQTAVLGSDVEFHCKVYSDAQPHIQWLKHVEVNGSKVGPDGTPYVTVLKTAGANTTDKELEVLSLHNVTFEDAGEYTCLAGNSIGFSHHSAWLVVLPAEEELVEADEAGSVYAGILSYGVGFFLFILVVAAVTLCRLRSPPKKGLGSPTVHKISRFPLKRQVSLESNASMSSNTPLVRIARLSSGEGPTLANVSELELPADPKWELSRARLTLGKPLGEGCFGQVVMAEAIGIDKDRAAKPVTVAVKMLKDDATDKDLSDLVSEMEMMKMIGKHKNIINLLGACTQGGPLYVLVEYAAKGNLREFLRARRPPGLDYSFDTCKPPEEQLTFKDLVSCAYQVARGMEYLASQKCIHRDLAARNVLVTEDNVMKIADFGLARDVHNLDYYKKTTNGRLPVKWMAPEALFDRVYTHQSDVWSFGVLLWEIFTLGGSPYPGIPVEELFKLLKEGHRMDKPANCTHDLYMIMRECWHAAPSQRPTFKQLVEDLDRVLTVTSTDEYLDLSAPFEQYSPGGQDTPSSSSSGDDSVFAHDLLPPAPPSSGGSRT

Kd (FGFR3) [nM] | Kd (FGFR4) [nM] | Kd (FGFR2) [nM] | Kd (FGFR1) [nM] | Compound | IC50 (BCR-FGFR1 Ba/F3) [nM] | IC50 (FGFR3-BAIAP2L1 Ba/F3) [nM]
0.1 to 100 | 0.1 to 100 | 0.1 to 100 | 0.1 to 100 | CCN1CCC2(CCc3cc(-c4n[nH]c5ccc(O[C@H](C)c6c(C)cnnc6C)cc45)ccc3O2)CC1 [Example 111, (R)-6-(5-(1-(3,5-dimethylpyridazin-4-yl)ethoxy)-1H-indazol-3-yl)-1′-ethylspiro[chroman-2,4′-piperidine]] | 0.1 to 100 | 0.1 to 100
0.1 to 100 | 0.1 to 100 | 0.1 to 100 | 0.1 to 100 | Cc1cnnc(C)c1[C@@H](C)Oc1ccc2[nH]nc(-c3ccc4c(c3)COC3(CCN(C(C)C)CC3)O4)c2c1 [Example 112, (R)-6-(5-(1-(3,5-dimethylpyridazin-4-yl)ethoxy)-1H-indazol-3-yl)-1′-isopropyl-4H-spiro[benzo[d][1,3]dioxine-2,4′-piperidine]] | 0.1 to 100 | 0.1 to 100
0.1 to 100 | 0.1 to 100 | 0.1 to 100 | 0.1 to 100 | CCN1CCC(Oc2ncc(-c3n[nH]c4ccc(O[C@H](C)c5c(Cl)cncc5Cl)cc34)cc2C#N)CC1 [Example 119] | 250 to 1000 | 0.1 to 100
0.1 to 100 | 0.1 to 100 | 100 to 250 | 250 to 1000 | C[C@@H](Oc1ccc2[nH]nc(-c3cnc4c(c3)N(S(C)(=O)=O)CCO4)c2c1)c1c(Cl)cncc1Cl [Example 137, 7-[5-[(1R)-1-(3,5-dichloro-4-pyridyl)ethoxy]-1H-indazol-3-yl]-1-methylsulfonyl-2,3-dihydropyrido[2,3-b][1,4]oxazine] | 250 to 1000 | 0.1 to 100
0.1 to 100 | 0.1 to 100 | 0.1 to 100 | 0.1 to 100 | Cc1ncc(Cl)c([C@@H](C)Oc2ccc3[nH]nc(-c4ccc(O[C@@H]5CCOC5)nc4)c3c2)c1Cl [Example 147, 5-((R)-1-(3,5-Dichloro-2-methylpyridin-4-yl)ethoxy)-3-(6-(((R)-tetrahydrofuran-3-yl)oxy)pyridin-3-yl)-1H-indazole] | > 1000 | 100 to 250
0.1 to 100 | 0.1 to 100 | 250 to 1000 | 250 to 1000 | Cc1cc(-c2n[nH]c3ccc(O[C@H](C)c4c(Cl)cnc(C)c4Cl)cc23)cnc1O[C@@H]1CCOC1 [Example 148, 5-((R)-1-(3,5-Dichloro-2-methylpyridin-4-yl)ethoxy)-3-(5-methyl-6-(((R)-tetrahydrofuran-3-yl)oxy)pyridin-3-yl)-1H-indazole] | 250 to 1000 | 100 to 250
0.1 to 100 | 0.1 to 100 | 0.1 to 100 | 0.1 to 100 | Cc1ncc(Cl)c([C@@H](C)Oc2ccc3[nH]nc(-c4ccc(O[C@H]5CCOC5)nc4)c3c2)c1Cl [Example 150, 5-[(1R)-1-(3,5-dichloro-2-methyl-4-pyridyl)ethoxy]-3-[6-[(3S)-tetrahydrofuran-3-yl]oxy-3-pyridyl]-1H-indazole] | 250 to 1000 | 0.1 to 100
0.1 to 100 | 0.1 to 100 | 100 to 250 | 100 to 250 | Cc1cc(-c2n[nH]c3ccc(O[C@H](C)c4c(Cl)cncc4Cl)cc23)cnc1NC1CCOCC1 [Example 151, (R)-5-(5-(1-(3,5-Dichloropyridin-4-yl)ethoxy)-1H-indazol-3-yl)-3-methyl-N-(tetrahydro-2H-pyran-4-yl)pyridin-2-amine] | 250 to 1000 | 0.1 to 100
0.1 to 100 | 0.1 to 100 | 0.1 to 100 | 0.1 to 100 | C[C@@H](Oc1ccc2[nH]nc(-c3ccc(OC4CC5(C4)CN(S(C)(=O)=O)C5)nc3)c2c1)c1c(Cl)cncc1Cl [Example 152, (R)-5-(1-(3,5-dichloropyridin-4-yl)ethoxy)-3-(6-((2-(methylsulfonyl)-2-azaspiro[3.3]heptan-6-yl)oxy)pyridin-3-yl)-1H-indazole] | 100 to 250 | 0.1 to 100
0.1 to 100 | 0.1 to 100 | 0.1 to 100 | 0.1 to 100 | Cc1cc(-c2n[nH]c3ccc(O[C@H](C)c4c(Cl)cncc4Cl)cc23)cnc1N[C@H]1CCOC1 [Example 153, 5-(5-((R)-1-(3,5-dichloropyridin-4-yl)ethoxy)-1H-indazol-3-yl)-3-methyl-N-((S)-tetrahydrofuran-3-yl)pyridin-2-amine] | 250 to 1000 | 0.1 to 100
0.1 to 100 | 0.1 to 100 | 0.1 to 100 | 0.1 to 100 | Cc1ncc(Cl)c([C@@H](C)Oc2ccc3[nH]nc(-c4ccc(N[C@@H]5CCOC5)nc4)c3c2)c1Cl [Example 155, 5-(5-((R)-1-(3,5-Dichloro-2-methylpyridin-4-yl)ethoxy)-1H-indazol-3-yl)-N-((R)-tetrahydrofuran-3-yl)pyridin-2-amine] | 100 to 250 | 0.1 to 100
0.1 to 100 | 0.1 to 100 | 0.1 to 100 | 0.1 to 100 | Cc1ncc(Cl)c([C@@H](C)Oc2ccc3[nH]nc(-c4ccc(NC5CCOCC5)nc4)c3c2)c1Cl [Example 156] | 100 to 250 | 0.1 to 100
0.1 to 100 | 0.1 to 100 | 0.1 to 100 | 0.1 to 100 | C[C@@H](Oc1ccc2[nH]nc(-c3ccc4c(c3)COC3(CCN(C5CCC5)CC3)O4)c2c1)c1c(Cl)cncc1Cl [Example 157, (R)-1′-Cyclobutyl-6-(5-(1-(3,5-dichloropyridin-4-yl)ethoxy)-1H-indazol-3-yl)-4H-spiro[benzo[d][1,3]dioxine-2,4′-piperidine]] | 250 to 1000 | 0.1 to 100
0.1 to 100 | 0.1 to 100 | 100 to 250 | 0.1 to 100 | Cc1cc(-c2n[nH]c3ccc(O[C@H](C)c4c(Cl)cncc4Cl)cc23)cnc1N[C@@H]1CCOC1 [Example 158, 5-(5-((R)-1-(3,5-dichloropyridin-4-yl)ethoxy)-1H-indazol-3-yl)-3-methyl-N-((R)-tetrahydrofuran-3-yl)pyridin-2-amine] | 250 to 1000 | 0.1 to 100
0.1 to 100 | 0.1 to 100 | 0.1 to 100 | 0.1 to 100 | C[C@@H](Oc1ccc2[nH]nc(-c3ccc(NC4CC5(C4)CN(S(C)(=O)=O)C5)nc3)c2c1)c1c(Cl)cncc1Cl [Example 159, (R)-N-(5-(5-(1-(3,5-dichloropyridin-4-yl)ethoxy)-1H-indazol-3-yl)pyridin-2-yl)-2-(methylsulfonyl)-2-azaspiro[3.3]heptan-6-amine] | 0.1 to 100 | 0.1 to 100
0.1 to 100 | 0.1 to 100 | 0.1 to 100 | 0.1 to 100 | Cc1ncc(Cl)c([C@@H](C)Oc2ccc3[nH]nc(-c4ccc(N[C@H]5CCOC5)nc4)c3c2)c1Cl [Example 160, 5-[5-[(1R)-1-(3,5-dichloro-2-methyl-4-pyridyl)ethoxy]-1H-indazol-3-yl]-N-[(3S)-tetrahydrofuran-3-yl]pyridin-2-amine] | 100 to 250 | 0.1 to 100
0.1 to 100 | 0.1 to 100 | 0.1 to 100 | 0.1 to 100 | C[C@@H](Oc1ccc2[nH]nc(-c3ccc(OC4C5CN(S(C)(=O)=O)CC54)nc3)c2c1)c1c(Cl)cncc1Cl (stereo partly drawn) [Example 162, 5-((R)-1-(3,5-dichloropyridin-4-yl)ethoxy)-3-(6-((3-(methylsulfonyl)-3-azabicyclo[3.1.0]hexan-6-yl)oxy)pyridin-3-yl)-1H-indazole] | 100 to 250 | 0.1 to 100
0.1 to 100 | 100 to 250 | 0.1 to 100 | 100 to 250 | Cc1ncc(Cl)c([C@@H](C)Oc2ccc3[nH]nc(-c4ccc5c(c4)COC4(CCN(S(C)(=O)=O)CC4)O5)c3c2)c1Cl [Example 163, (R)-6-(5-(1-(3,5-Dichloro-2-methylpyridin-4-yl)ethoxy)-1H-indazol-3-yl)-1′-(methylsulfonyl)-4H-spiro[benzo[d][1,3]dioxine-2,4′-piperidine]] | 250 to 1000 | 0.1 to 100
